Earlier results, collected in patent publication US8110226B2, “Drug formulations having inert sealed cores” (Mylan Pharmaceuticals Inc., priority 2007, dated 2012).

Details: first pKa of non-polymeric pH modifying acid

pKa: 4.14
SMILES: CC(O)C(=O)O (stereo not shown) [Lactic Acid]
